# Entries after “also recorded” stand apart in the source; their conditions may differ.
# How the values were obtained:
# [1] = Retention after intraperitoneal injection in mice; assay type: in vivo, mouse
# NIH:OVCAR-3 cells = experiment: In vitro irradiation survival (clonogenic), monolayer; assay type: cell-based, human; conditions: OVCAR-3 monolayer
# Experimental: In vitro studies were carried out using three well known cell lines, the cells from which were exposed to radiation from: (1) an X-ray source; (2) P-32 chromic phosphate; and (3) Bi-212 chloride. The three cell lines that were used are V-79, which is a Chinese hamster lung fibroblast, Ehrlich-Lettre Ascites carcinoma (ATCC CCL 77), which is an ascites producing -tumor, and NIH:OVCAR-3 (ATCC HTB 161), which is a human ovarian adenocarcinoma. These well known cell lines are predictive of what happens in vivo. The cells were grown as monolayers and into spheroid formations and subsequently irradiated, as described herein.
# The V-79 cells were maintained under exponential growth conditions in minimal essential medium (MEM) supplemented with 10 percent fetal bovine serum. The Ehrlich-Lettre Ascites carcinoma cells were maintained in 90 percent NCTC 109 supplemented with 10 percent fetal bovine serum. The NIH:OVCAR-3 cells were maintained in RPMI 1640 and 10 percent fetal bovine serum.
# Cells from each of the cell lines were irradiated by subjecting the cells to X-ray radiation, P-32, and Bi-212. The X-ray source that was used is a General Electric 250 kvp Maxitron, 26 […] (mA) (HVL 1.5 mm Cu) operated at a dose rate of 1.11 Greys per minute (Gy/min). The cells, in both monolayer and spheroid form were exposed at room temperature and then immediately plated for survival.
# Cells in both monolayer and spheroid were exposed to P-32 chromic phosphate. The radiation dose to each sample was calculated as: […]
# After exposure, the cells were washed in phosphate-buffered saline (PBS) and immediately plated for survival.
# The cell lines were also irradiated using Bi-212. Bismuth-212 was eluted from a generator as described in the aforementioned patent to Atcher et al., which was a cation-exchange column supporting Ra-224, with 1 ml of 0.15 N HI, and the generator was purged with 2 ml of distilled deionized water. […] The filter was purged with 1 ml of distilled deionized water, and the radioactivity was assayed using a calibrated 3×3-in. […]
# Cells were exposed over a period of four hours. The dose (D) per microCurie was calculated and corrected for decay as follows: [formula] where V=volume in milliliters, and […]
# Following plating, survival measurements were taken for each of the irradiated cell samples. […] The plates were then stained with crystal violet and colonies greater than 50 cells were scored. The surviving fraction was then determined.
# Intrinsic radiosensitivity (Do) was calculated from the survival curves. […] Relative biological effectiveness (RBE) was determined as the ratio of the absorbed dose of X-ray to that of alpha radiation to produce the same degree of biological effect.
# [2] = Toxicity studies, intraperitoneal graded doses; assay type: in vivo, rabbit
# Experimental: (§1) In vivo studies were conducted to determine the distribution of Bi-212 produced using the above-noted process and to compare the Bi-212 distribution to the distribution of Pb-212 ferrous hydroxide in colloidal form. The in vivo studies were conducted using white, female New Zealand rabbits weighing about 4.5 kilograms ([…]) each. Studies were also conducted using rabbits to determine the toxicity levels, e.g., the maximum tolerated dose. Efficacy studies were conducted using 25 gram (gm) female Swiss-Webster mice inoculated with Ehrlich-Lettre Ascites carcinoma cells.
# The peritoneal cavities of rabbits were instilled with graded doses of Bi-212. The rabbits were followed until death or for up to three months after their blood counts normalized. The rabbits were necropsied at death or termination of the study and their organs were microscopically examined to determine the effect of the Bi-212 on healthy organs.
# [3] = Distribution in peritoneal cavity (imaging and necropsy); assay type: in vivo, rabbit; conditions: rabbits
# Experimental: as §1
# Groups of rabbits were instilled with a varying amounts (correlating to varying activities) of Bi-212 that were prepared in accordance with the before-described process, neutralized to pH values of between 5.0 and 7.4, and had added thereto a quantity of normal saline to make a 200 cc sample. To compare the distribution of Bi-212, Pb-212 ferrous hydroxide was prepared in accordance with known methods. Rotmensch et al., Gynecol. Oncol., 35:297-300 (1989). […]
# Of the groups of rabbits instilled with the Bi-212 solution, a rabbit was imaged and necropsied at each of one-half hour, one hour and three hours after instillation. The percent injected activity (%IA) in each organ was measured to determine the distribution of the Bi-212(Table 6). […] The percent activity remaining in the peritoneal fluid was measured.
compound,measurement,setting,value
"[212Bi] [Bi-212, bismuth-212]",Carcass,[1]; 1 min,88.3 % IA
same,Urine,[1]; 1 min,0.025 % IA
same,Carcass,[1]; 10 min,87.3 % IA
same,Urine,[1]; 10 min,2.2 % IA
same,Carcass,[1]; 16 min,66.8 % IA
same,Stool,[1]; 16 min,0.20 % IA
same,Urine,[1]; 16 min,2.9 % IA
same,Carcass,[1]; 30 min,79.1 % IA
same,Stool,[1]; 30 min,0.53 % IA
same,Urine,[1]; 30 min,6.9 % IA
same,Carcass,[1]; 61 min,68.5 % IA
same,Stool,[1]; 61 min,1.3 % IA
same,Urine,[1]; 61 min,15.9 % IA
same,Carcass,[1]; 120 min,62.9 % IA
same,Stool,[1]; 120 min,6.7 % IA
same,Urine,[1]; 120 min,19.5 % IA
same,Stool,[1]; 180 min,8.3 % IA
same,Urine,[1]; 180 min,24.8 % IA
same,Carcass,[1]; 180 min (3 hours),61.4 % IA
same,D0 (intrinsic radiosensitivity),NIH:OVCAR-3 cells; dose increment reducing survival to 37 percent,0.75 Gy
same,Relative biological effectiveness (RBE),NIH:OVCAR-3 cells; relative to X-ray,3.19
same,Microscopic examination of organs,"[2]; 60 mCi, three months after instillation",only mild blunting of intestinal villi
same,"Histology, small and large intestines",[2]; 80 mCi,marked individual cell necrosis of gland epithelium of the small and large intestines
same,Survival,[2]; 80 mCi,survived about three days
same,Histology,[2]; 100 mCi,diffuse epithelial necrosis
same,Survival,[2]; 100 mCi,survived about three days
same,Mortality,[2]; doses greater than 60 mCi,death within three days
same,Maximum dose tolerated,"[2]; rabbits, intraperitoneal",60 mCi
same,Distribution in peritoneal cavity/fluid,[3]; intraperitoneal instillation,even distribution within the peritoneal fluid; also recorded: relatively even
same,Clumping / localized activity in peritoneal cavity,[3]; imaging up to 3 hours or necropsy,"no clumping; i.e., no localized activity in the peritoneal cavity up to 3 hours after instillation"
